US5098613A, “Anti-inflammatory agents” (Eli Lilly and Company, priority 1990, dated 1992)
Like-named read-outs stand apart in the source and are kept apart here.

Biological target: T1, leukotriene B4 specific receptor on the membrane of human neutrophils (Homo sapiens, UniProt Q15722)
T1 construct: incubating neutrophils (1×10^7 cells) with 0.1-0.2 nM ^3 H-LTB4; endogenous in cells; host or cells: human peripheral blood neutrophils (buffy coats of two blood donors)
Assay: Inhibition of Binding of ^3 H-LTB4 to Peripheral Human Neutrophils
Settings: for inhibition at 10 µM: read-out: LTB4 Binding Inhibition; for inhibition at 1 µM: drug concentration 10^-6 M; for inhibition at 0.1 µM: drug concentration 10^-7 M
Experimental: The effectiveness of compounds to inhibit the binding of leukotriene B4 to a specific receptor on the membrane of human neutrophils was measured by using an adaptation of a radio-ligand binding assay developed by Goldman and Goetzl, J. Immunol., 129, 1600 (1982). Other investigators have developed similar assays (see, e.g., Kreisle, et al., J. Exp. Med., 157, 628 (1983) and Lin, et al., Prostaglandins, 28, 837 (1984)).
Cells used in the assay were isolated by standard techniques of centrifugation on Ficol-Hypaque, dextran 70 sedimentation and hypotonic lysis. The following procedure was used. Freshly-prepared buffy coat layers from two individuals were obtained from a local blood donor center. The cells were mixed and diluted to 484 ml. with phosphate buffered saline containing heparin (10 units/ml) and heat-inactivated calf serum (5%). This was divided into 20 ml. aliquots and the aliquots layered on top of Ficoll-Paque (12 ml.). The material was then centrifuged at 500 g. for 40 minutes at room temperature. The resulting upper layer of platelets and mononuclear cells was discarded. The lower layer containing erythrocytes and neutrophils was retained. Buffer was added (1 ml. per 4 ml. of lower layer) and the suspension mixed. For each milliliter of this mixture, 0.33 ml. of 6% Macrodex was added. After stirring, the cels were allowed to sediment for 1 hour at 37° C. The resulting erythrocyte pellet was discarded and the neutrophil enriched supernatant fluid centrifuged at 500 g. for 10 minutes at 4° C. Erythrocytes still present in this cell pellet were lysed by incubating the cells with 5-8 ml. ice-cold distilled water for 30-45 seconds. Subsequently, the volume was made up to 50 ml. by addition of ice-cold buffer and the cells resuspended. The suspension was then centrifuged at 300 g. for 10 minutes at 4° C. The cells were finally resuspended at a cell density of 2×10^7 cells/ml in the assay buffer. This buffer Consisted of Hanks' balanced salt solution and 0.1% ovalbumin (pH 7.3).
The radio-ligand binding assay was conducted by incubating neutrophils (1×10^7 cells) with 0.1-0.2 nM ^3 H-LTB4 (sp. act. 150-220 Curies/mmol) and test compound (1×10^-5 M and 1×10^-6 M) for 10 minutes at 4° C. The amount of bound ^3 H-LTB4 was then measured and compared with the amount bound in the absence of test compound. The assay was carried out in microcentrifuge tubes by adding first 10 μl test compound dissolved in DMSO, followed by adding 20 μl ^3 H-LTB4 diluted in assay buffer, and finally adding 500 μl of the cell suspension pension. At the end of the 10 minutes incubation, 300 μl of a mixture of dibutyl and dinonyl phthalate (7:2) were added and the tubes centrifuged for 2 minutes in a microcentrifuge. The radioactivity bound to the cell pellet was measured by scintillation spectroscopy. Appropriate corrections for nonspecific bonding of ^3 H-LTB4 were made.

[1] = drug concentration 10^-5 M, 4° C., 10 minutes

T1 sequence (Q15722 whole entry): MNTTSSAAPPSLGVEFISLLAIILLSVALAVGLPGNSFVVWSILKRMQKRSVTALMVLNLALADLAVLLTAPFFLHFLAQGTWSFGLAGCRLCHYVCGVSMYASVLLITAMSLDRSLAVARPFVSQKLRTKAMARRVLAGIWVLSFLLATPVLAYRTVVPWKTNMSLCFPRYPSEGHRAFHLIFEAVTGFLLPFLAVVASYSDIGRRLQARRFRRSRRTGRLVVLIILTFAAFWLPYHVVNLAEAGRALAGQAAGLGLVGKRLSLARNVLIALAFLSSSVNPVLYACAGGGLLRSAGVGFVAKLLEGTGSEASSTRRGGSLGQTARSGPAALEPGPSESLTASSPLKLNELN

SMILES	inhibition at 10 µM [1] [%]	inhibition at 1 µM (4° C., 10 minutes) [%]	inhibition at 0.1 µM (4° C., 10 minutes) [%]	inhibition at 10 µM [%]
C=CCc1cc(C(C)=O)c(O)cc1OCCCCCCCCCCC#N [Example 70, 11-(4-Acetal-5-hydroxy-2-allylphenoxy)-undecanenitrile]	50	14		
CC(=O)c1cc(C)c(OCCCCC#N)cc1O [Example 28, 5-(4-Acetyl-2-methyl-5-hydroxyphenoxy)-pentanenitrile]	77	32		
C=CCc1cc(C(C)=O)c(O)cc1OCCCCCC(N)=O [Example 96, 6-(4-Acetyl-5-hydroxy-2-allylphenoxy)hexanamide]	87	37		
C=CCc1cc(C(=O)CC)c(O)cc1OCCCCC#N [Example 105, 5-[5-Hydroxy-4-(1-oxopropyl)-2-allylphenoxy]pentanenitrile]	76	35		
C=CCc1cc(C(C)=O)c(O)cc1OC [Example 42, 2-Hydroxy-4-methoxy-5-allylacetophenone]	6	12		
C#CCCCCOc1cc(O)c(C(C)=O)cc1CC=C [Example 57, 4-(5-Hexynyloxy)-2-hydroxy-5-allylaceto-phenone]	73	29		
C=CCc1cc(C(C)=O)c(O)cc1OCCCCO [Example 44, 4-(4-Hydroxybutoxy)-5-allyl-2-huydroxy-aoetophenone]	47	9		
CCc1cc(C(=O)CCCC(=O)O)c(O)cc1OCCCCC#N [Example 88, 5-[(4-Cyanobutoxy)-5-ethyl-2-hydroxybenzene]-5-oxopentanoic acid]	19	-1		
CC(=O)c1cc(C(C)=O)c(OCCCCC#N)cc1O [Example 16, 5-(2,4-Diacetyl-5-hydroxy-phenoxy)pentanenitrile]	8	-7		
CCCCCc1cc(C(C)=O)c(O)cc1OCCCCC#N [Example 31, 5-(4-Acetyl-5-hydroxy-2-pentylphenoxy)-pentanenitrile]	30	14		
C=CCc1cc(C(C)=O)c(O)cc1OCCCCCCCC#N [Example 69, 8-(4-Acetyl-5-hydroxy-2-allylphenoxy)octanenitrile]	88	51		
COCc1cc(C(C)=O)c(O)cc1OCCCCCCC#N [Example 129, 7-[4-Acetyl-5-hydroxy-2-(methoxymethyl)phenoxy]-hdptanentrile]	47	7		
CC(=O)c1cc(C=O)c(OCCCCC#N)cc1O [Example 18, 5-(4-Acetyl-5-hydroxy-2-formylphenoxy)-pentanenitrile]	5	3		
C=CCc1cc(C(C)=O)c(O)cc1OCCCC#N [Example 26, 4-(4-Acetyl-5-hydroxy-2-allylphenoxy)-butanenitrile]	46	5		
C=CCc1cc(C(C)=O)c(O)cc1OCCCCCCS(C)(=O)=O [Example 80, 2-hydroxy-4-[6-(methylsulfonyl)-hexyloxy]-5-allylacetophenone]		62		100
CCc1cc(CC)c(OCCCCCC(C)(C)c2nnn[nH]2)cc1O [Example 151, 2,4-Diethyl-5-{[6-methyl-6-(1H-tetrazol-5-yl)heptyl]oxy}phenol]	105	103	78	
C=CCc1cc(C(C)=O)c(O)cc1OCC#N [Example 25, (4-Acetyl-5-hydroxy-2-allylphenoxy)-acetonitrile]	19	2		
C=CCc1cc(C(C)=O)c(O)cc1OCCCCCCC#N [Example 24, 7-(4-Acetyl-5-hydroxy-2-allylphenoxy)-]	94	59		
C=CCc1cc(C(C)=O)c(O)cc1OCCCCCCC [Example 37, 4-(Heptyloxy)-2-hydroxy-5-allylacetophenone]	31	8		
C=CCc1cc(C(C)=O)c(O)cc1OCCCCc1nnn(C)n1 [Example 120, 2-Hydroxy-4-[4-(2-methyl-2H-tetrazol5-yl)butoxy]-5-allylacetophenone]	97	55		
CCc1cc(C(=O)c2ccc(C(=O)O)cc2)c(O)cc1OCCCCC#N [Example 91, 4[4-(4-Cyanobutoxy)-5-ethyl-2-hydroxybenzoyl]benzoic acid]	26	20		
C=CCCCCOc1cc(O)c(C(C)=O)cc1CC=C [Example 46, 4-(5-Hexenyloxy)-2-hydroxy-5-allylacetophenone]	72	26		

Second part, led by results:

inhibition at 10 µM [1] [%]	inhibition at 1 µM (4° C., 10 minutes) [%]	inhibition at 0.1 µM (4° C., 10 minutes) [%]	SMILES	inhibition at 10 µM [%]
93	45		CCc1cc(C(C)=O)c(O)cc1OCCCC(C)(C)C(=O)O [Example 134, 5-(4-Acetyl-2ethyl-5-hydroxyphenoxy)-2,2-dimethylpentanoic acid]	
	41	3	CCc1cc(C(C)=NO)c(O)cc1OCCCCCC(C)(C)C(=O)O [Example 152, 7-{4-[-(Hydroxyimino)ethyl]-2-ethyl-5-hydroxyphenoxy}-2,2-dimethylheptanoicacid]	
63	20		CCc1cc(C(C)=O)c(O)cc1OCCCCc1nnnn1CC(=O)O [Example 144, 5-[4-(4-Acetyl-2-ethyl-5-hydroxyphenoxy)-butyl]-1H-tetrazole-1-acetic acid]	
71	23		CCCc1cc(C(C)=O)c(O)cc1OCCCCNC(C)=O [Example 77, N-[4-(4-Acetyl-5-hydroxy-2-propylphenoxy)-butyl]acetamide]	
95	55		CCc1cc(C(C)=O)c(O)cc1OCCCC(C)(C)C(N)=O [Example 135, 5-(4-Acetyl-2-ethyl-5-hydroxyphenoxy)-2,2-dimethylpentamide]	
101	85		CCc1cc(C(C)=O)c(O)cc1OCCCCCCC(=O)Nc1nnn[nH]1 [Example 145, 7-(4-Acetyl-2-ethyl-5-hydroxyphenoxy)-N-1H-tetrazol-5-ylheptanamide]	
97	57		C=CCc1cc(C(C)=O)c(O)cc1OCCCCCC(C)=O [Example 102]	
89	48		CCc1cc(C(C)=O)c(O)cc1OCCCC(C)(C)C#N [Example 133, 5-(4-Acetyl-2ethyl-5-hydroxyphenoxy)-2,2-dimethylpentanitrile]	
81	29		CCc1cc(C(C)=O)c(O)cc1OCCCCCn1cncn1 [Example 146]	
90	57		CCOC(=O)Cn1nnc(CCCCOc2cc(O)c(C(C)=O)cc2CC)n1 [Example 141, 5-[4-(4-Acetyl-2-ethyl-5-hydroxyphenoxy)-butyl]-2H-tetrazole-2-acetic acid, ethyl ester]	
59	22		C=CCc1cc(C(C)=O)c(O)cc1OCCCCC [Example 41, 4-Pentyloxy-2-hydroxy-5-allylaceto-phenone]	
81	28		CCc1cc(C(C)=O)c(O)cc1OCc1cccc(C(=O)O)c1 [Example 84]	
34	5		CCOC(=O)Cn1nnnc1CCCCOc1cc(O)c(C(C)=O)cc1CC [Example 142, 5-[4-(4-acetyl-2-ethyl-5-hydroxyphenoxy)butyl]-1H-tetrazole-1-acetic acid, ethyl ester]	
98	58		CCc1cc(C(C)=O)c(O)cc1OCCCCCNC(C)=O [Example 138, N-[5-(4-Acetyl-2-ethyl-5-hydroxyphenoxy)-pentyl]acetamide]	
